Counter-ions that a name gives are not always drawn.
Biological target: T1, ERα (Homo sapiens, UniProt P03372)
T1 construct: host or cells: MCF7 cells
T1 sequence (P03372 1-595): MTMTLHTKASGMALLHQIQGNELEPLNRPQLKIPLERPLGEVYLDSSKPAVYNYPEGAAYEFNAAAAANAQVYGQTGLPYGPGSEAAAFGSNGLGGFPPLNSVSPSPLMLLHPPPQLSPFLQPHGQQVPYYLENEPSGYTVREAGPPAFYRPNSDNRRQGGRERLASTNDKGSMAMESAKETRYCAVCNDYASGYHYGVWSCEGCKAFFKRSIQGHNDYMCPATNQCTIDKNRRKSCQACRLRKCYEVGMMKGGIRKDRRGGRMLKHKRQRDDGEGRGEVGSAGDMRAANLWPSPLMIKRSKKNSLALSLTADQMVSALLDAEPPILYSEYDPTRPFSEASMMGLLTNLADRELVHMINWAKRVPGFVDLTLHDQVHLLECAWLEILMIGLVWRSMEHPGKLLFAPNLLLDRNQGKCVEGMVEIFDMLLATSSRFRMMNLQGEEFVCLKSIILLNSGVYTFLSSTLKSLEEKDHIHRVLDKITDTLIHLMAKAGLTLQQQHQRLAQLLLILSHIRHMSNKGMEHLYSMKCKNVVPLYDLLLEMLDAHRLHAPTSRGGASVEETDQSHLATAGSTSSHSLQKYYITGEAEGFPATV
Assay: Estrogen receptor degradation activity: breast cancer cell ERα in cell western assay (MCF7 cells)
Format: cell-based
Conditions: 4 hours, final concentrations ranging from 0.3-0.0000018 μM, relative to fulvestrant 0.1 μM positive control
Description: Test: Estrogen Receptor Degradation Activity
Said test involves measuring the in vitro degradation activity of the compounds of the invention.
The measurements of the degradation activities were made using a breast cancer cell ERα in cell western assay as described hereunder.
MCF7 cells (ATCC) were seeded in 384 wells microplate (collagen coated) at a concentration of 10000 cells/30 μL, per well in red phenol free MEM alpha medium (invitrogen) containing 5% charcoal dextran striped FBS. The following day, 9 points serial 1:5 dilution of each compound was added to the cells in 2.5 μL at final concentrations ranging either from 3-0.000018 μM (column «% Degradation at 3 μM in table 2) or from 0.3-0.0000018 μM (column «% Degradation at 0.3 μM in table 2), or 0.1 μM for fulvestrant (using as positive control). At 4 hours post compound addition the cells were fixed by adding 25 μL of formalin (final concentration 5% formalin containing 0.1% triton) for 10 minutes at room temperature and then washed twice with PBS. Then, 50 μL of LI-COR blocking buffer containing 0.1% Triton was added to plate for 30 minutes at room temperature. LI-COR blocking buffer was removed and cells were incubated overnight at cold room with 50 μL anti-ER rabbit monoclonal antibody (Thermo scientific MA1-39540) diluted at 1:1000 in LI-COR blocking buffer containing 0.1% tween-20. Wells which were treated with blocking buffer but no antibody were used as background control. Wells were washed twice with PBS (0.1% tween-20) and incubated at 37° C. for 60 minutes in LI-COR (0.1% tween-20) containing goat anti-rabbit antibody Alexa 488 (1:1000) and Syto-64 a DNA dye ([…]). Cells were then washed 3 times in PBS and scanned in ACUMEN explorer (TTP-Labtech). Integrated intensities in the green fluorescence and red fluorescence were measured to determine the levels of ERα and DNA respectively.

Compared with `C/N=c1\scc(-c2ccc3c(c2)CCCC(c2ccc(Cl)cc2Cl)=C3c2ccc(O[C@H]3CCN(CCCF)C3)cc2)n1C` [Example 69, (S,Z)-4-(8-(2,4-dichlorophenyl)-9-(4-((1-(3-fluoropropyl)pyrrolidin-3-yl)oxy)phenyl)-6,7-dihydro-5H-benzo[7]annulen-3-yl)-N,3-dimethylthiazol-2(3H)-imine hydrochloride], `NC(=O)c1ccc(-c2ccc3c(c2)CCCC(c2ccc(Cl)cc2Cl)=C3c2ccc(O[C@H]3CCN(CCCF)C3)cc2)cc1` [Example 81, (S)-4-(8-(2,4-dichlorophenyl)-9-(4-((1-(3-fluoropropyl)pyrrolidin-3-yl)oxy)phenyl)-6,7-dihydro-5H-benzo[7]annulen-3-yl)benzamide] is lower in “% Degradation At 0.3 μM” value: 69% for the first, 67% for the second.

Going from `CC(C)(C)C(=O)Nc1ccc2c(c1)CCCC(c1ccc(Cl)cc1Cl)=C2c1ccc(O[C@H]2CCN(CCCF)C2)cc1` [Example 62, (S)—N-(8-(2,4-dichlorophenyl)-9-(4-((1-(3-fluoropropyl)pyrrolidin-3-yl)oxy)phenyl)-6,7-dihydro-5H-benzo[7]annulen-3-yl)pivalamide] to `NC(=O)C(=O)Nc1ccc2c(c1)CCCC(c1ccc(Cl)cc1Cl)=C2c1ccc(O[C@H]2CCN(CCCF)C2)cc1` [Example 77, (S)—N1-(8-(2,4-dichlorophenyl)-9-(4-((1-(3-fluoropropyl)pyrrolidin-3-yl)oxy)phenyl)-6,7-dihydro-5H-benzo[7]annulen-3-yl)oxalamide], the “% Degradation At 0.3 μM” value falls from 68% to 55%.

`COC(=O)c1ccccc1-c1ccc2c(c1)CCCC(c1ccc(Cl)cc1Cl)=C2c1ccc(O[C@H]2CCN(CCCF)C2)cc1` [Example 83, methyl (S)-2-(8-(2,4-dichlorophenyl)-9-(4-((1-(3-fluoropropyl)pyrrolidin-3-yl)oxy)phenyl)-6,7-dihydro-5H-benzo[7]annulen-3-yl)benzoate] was tested, and the “% Degradation At 0.3 μM” value was 63%.

Same assay, conditions: 4 hours, final concentrations ranging from 3-0.000018 μM, relative to fulvestrant 0.1 μM positive control

First: CC1(C)OB(c2ccc3c(c2)CCCC(c2ccc(Cl)cc2Cl)=C3c2ccc(O[C@H]3CCN(CCCF)C3)cc2)OC1(C)C [Example 1, (S)-3-(4-(8-(2,4-dichlorophenyl)-3-(4,4,5,5-tetramethyl-1,3,2-dioxaborolan-2-yl)-6,7-dihydro-5H-benzo[7]annulen-9-yl)phenoxy)-1-(3-fluoropropyl)pyrrolidine]
Second: COC(=O)Nc1ccc2c(c1)CCCC(c1ccc(Cl)cc1Cl)=C2c1ccc(O[C@H]2CCN(CCCF)C2)cc1 [Example 25, Methyl (S)-(8-(2,4-dichlorophenyl)-9-(4-((1-(3-fluoropropyl)pyrrolidin-3-yl)oxy)phenyl)-6,7-dihydro-5H-benzo[7]annulen-3-yl)carbamate]
The “% Degradation At 3 μM” value of the first is higher: 86% for the first, 65% for the second.

First: OC(c1ccc2c(c1)CCCC(c1ccc(Cl)cc1Cl)=C2c1ccc(O[C@H]2CCN(CCCF)C2)cc1)C(F)F (stereo partly drawn) [Example 5, 1-(8-(2,4-dichlorophenyl)-9-(4-(((S)-1-(3-fluoropropyl)pyrrolidin-3-yl)oxy)phenyl)-6,7-dihydro-5H-benzo[7]annulen-3-yl)-2,2-difluoroethan-1-ol]
Second: OC(c1ccc2c(c1)CCCC(c1ccc(Cl)cc1Cl)=C2c1ccc(O[C@H]2CCN(CCCF)C2)cc1)C(F)(F)F (stereo partly drawn) [Example 10, 1-(8-(2,4-dichlorophenyl)-9-(4-(((S)-1-(3-fluoropropyl)pyrrolidin-3-yl)oxy)phenyl)-6,7-dihydro-5H-benzo[7]annulen-3-yl)-2,2,2-trifluoroethan-1-ol]
The “% Degradation At 3 μM” value of the first is higher: 93% for the first, 92% for the second.

First: O=C(Nc1nn[nH]n1)c1ccc2c(c1)CCCC(c1ccc(Cl)cc1Cl)=C2c1ccc(O[C@H]2CCN(CCCF)C2)cc1 [Example 17, (S)-8-(2,4-dichlorophenyl)-9-(4-((1-(3-fluoropropyl)pyrrolidin-3-yl)oxy)phenyl)-N-(2H-tetrazol-5-yl)-6,7-dihydro-5H-benzo[7]annulene-3-carboxamide]
Second: CONC(=O)c1ccc2c(c1)CCCC(c1ccc(Cl)cc1Cl)=C2c1ccc(O[C@H]2CCN(CCCF)C2)cc1 [Example 19, (S)-8-(2,4-dichlorophenyl)-9-(4-((1-(3-fluoropropyl)pyrrolidin-3-yl)oxy)phenyl)-N-methoxy-6,7-dihydro-5H-benzo[7]annulene-3-carboxamide]
The “% Degradation At 3 μM” value of the first is lower: 84% for the first, 86% for the second.

Compared with `O=C1OCCN1c1ccc(C2=C(c3ccc(O[C@H]4CCN(CCCF)C4)cc3)c3ccc(N4CCOC4=O)cc3CCC2)c(Cl)c1` [Example 41, (S)-3-(8-(2-chloro-4-(2-oxooxazolidin-3-yl)phenyl)-9-(4-((1-(3-fluoropropyl)pyrrolidin-3-yl)oxy)phenyl)-6,7-dihydro-5H-benzo[7]annulen-3-yl)oxazolidin-2-one], `O=C1OCCN1c1ccc2c(c1)CCCC(c1ccc(Cl)cc1Cl)=C2c1ccc(O[C@H]2CCN(CCCF)C2)cc1` [Example 40, (S)-3-(8-(2,4-dichlorophenyl)-9-(4-((1-(3-fluoropropyl)pyrrolidin-3-yl)oxy)phenyl)-6,7-dihydro-5H-benzo[7]annulen-3-yl)oxazolidin-2-one] is lower in “% Degradation At 3 μM” value: 74% for the first, 66% for the second.

First: O=C1CCCN1c1ccc2c(c1)CCCC(c1ccc(Cl)cc1Cl)=C2c1ccc(O[C@H]2CCN(CCCF)C2)cc1 [Example 58, (S)-1-(8-(2,4-dichlorophenyl)-9-(4-((1-(3-fluoropropyl)pyrrolidin-3-yl)oxy)phenyl)-6,7-dihydro-5H-benzo[7]annulen-3-yl)pyrrolidin-2-one]
Second: O=c1oc(-c2ccc3c(c2)CCCC(c2ccc(Cl)cc2Cl)=C3c2ccc(O[C@H]3CCN(CCCF)C3)cc2)ns1 [Example 33, (S)-5-(8-(2,4-dichlorophenyl)-9-(4-((1-(3-fluoropropyl)pyrrolidin-3-yl)oxy)phenyl)-6,7-dihydro-5H-benzo[7]annulen-3-yl)-1,3,4-oxathiazol-2-one]
The “% Degradation At 3 μM” value of the first is lower: 77% for the first, 95% for the second.

Compared with `FCCCN1CC[C@H](Oc2ccc(C3=C(c4ccc(OC(F)(F)F)cc4)CCCc4cc(-c5cn[nH]c5)ccc43)cc2)C1` [Example 23, (S)-4-(9-(4-((1-(3-fluoropropyl)pyrrolidin-3-yl)oxy)phenyl)-8-(4-(trifluoromethoxy)phenyl)-6,7-dihydro-5H-benzo[7]annulen-3-yl)-1H-pyrazole], `O=C(Nc1ccc2c(c1)CCCC(c1ccc(Cl)cc1Cl)=C2c1ccc(O[C@H]2CCN(CCCF)C2)cc1)C(F)(F)F` [Example 47, (S)—N-(8-(2,4-dichlorophenyl)-9-(4-((1-(3-fluoropropyl)pyrrolidin-3-yl)oxy)phenyl)-6,7-dihydro-5H-benzo[7]annulen-3-yl)-2,2,2-trifluoroacetamide] is higher in “% Degradation At 3 μM” value: 74% for the first, 78% for the second.

First: O=c1c(O)c(Nc2ccc3c(c2)CCCC(c2ccc(Cl)cc2Cl)=C3c2ccc(O[C@H]3CCN(CCCF)C3)cc2)c1=O [Example 36, (S)-3-((8-(2,4-dichlorophenyl)-9-(4-((1-(3-fluoropropyl)pyrrolidin-3-yl)oxy)phenyl)-6,7-dihydro-5H-benzo[7]annulen-3-yl)amino)-4-hydroxycyclobut-3-ene-1,2-dione]
Second: FCCCN1CC[C@H](Oc2ccc(C3=C(c4ccc(Cl)cc4Cl)CCCc4cc(-c5nnco5)ccc43)cc2)C1 [Example 7, (S)-2-(8-(2,4-dichlorophenyl)-9-(4-((1-(3-fluoropropyl)pyrrolidin-3-yl)oxy)phenyl)-6,7-dihydro-5H-benzo[7]annulen-3-yl)-1,3,4-oxadiazole]
The “% Degradation At 3 μM” value of the first is higher: 93% for the first, 86% for the second.
